The numbers were not newly measured in US20020099506A1, “Methods and apparatus for predicting ligand binding interactions” (priority 2000, published 2002), which cites them from elsewhere.

The structures appear in SMILES notation. Entries after “also recorded” stand apart in the source; their conditions may differ.

The first data set concerns olfactory receptor S18. The following applies: according to Malnic et al.
Consider `O=C(O)CCCCCCCBr` [8-bromo-octanoic acid], for which the “experimental response of S18” value is given as “responds experimentally”. Take `CCCCCCC(=O)O` [heptanoic acid]: the “experimental response of S18” value is “responds experimentally”. Consider `CCCCCCCCC(=O)O` [nonanoic acid], for which the “experimental response of S18” value was “responds experimentally”. With `CCCCCCCCCO` [nonanol], the “experimental response of S18” value was “responds experimentally”. On to `CCCCCCCC(=O)O` [octanoic acid], for which the “experimental response of S18” value was “responds experimentally”. Consider `CCCCCCCCO` [octanol], for which the “experimental response of S18” value is “responds experimentally”.

The test system of the next data set is olfactory receptor S25 (OR S25). The note with it: data of Malnic et al.; 24 odorants of 4-9 carbon atoms.
For the compound `CCCCCCCO` [heptanol], the “experimental odor response of S25” value was “responds positively; also recorded: elicited measurable responses”. For the compound `CCCCCCO` [hexanol], the “experimental odor response of S25” value is on record as “responds positively; also recorded: elicited measurable responses”.

The subject of the next data set is histdyl t-RNA synthetase.
Settings: not given
On to `N[C@@H](Cc1c[nH]cn1)C(=O)O` [histidine], for which the “recognition by the enzyme (experimental observations)” value was “the only ligand recognized by this enzyme”.
